These results are taken from patent publication US20150237857A1, “ANTIBACTERIAL INHIBITORS” (MCMASTER UNIVERSITY, priority 2012, published 2015).

As a reminder, the IC50 is the concentration at which inhibition is half-maximal. Usually Ki stands for the dissociation constant of the complex between target and ligand, obtained from inhibition or displacement. As usually defined, the MIC is the least concentration at which growth counts as inhibited. A word on the inhibition: it is the share of the control response that was lost under treatment.

≈ marks a conversion by molar mass, not a printed value. Entries after “also recorded” stand apart in the source; their conditions may differ. Like-named read-outs stand apart in the source and are kept apart here.

The test system of data set [1] is E. coli MG1655. Nature of the data set: Metabolic suppression profiling (ChemArray). As to conditions: for metabolic suppression profile: metabolites that suppress growth inhibitory activity: ChemArray; for suppression of growth inhibitory activity by p-aminobenzoic acid (PABA): PABA in growth media; for suppression of growth inhibitory activity by methionine: methionine in growth media. It counts as cell-based.

Data set [2] has as its system E. coli wild-type, ΔltaEΔtdh and ΔltaEΔtdhΔkbl strains.
The target of data set [3] is T1, recombinant PabA, PabB and PabC (Escherichia coli, UniProt P00903+P05041+P28305).
T1 construct: poly-histidine (pDEST17) (N); made in house; host or cells: E. coli BL21AI (pDEST17, arabinose induction)
In words: biochemical. The arrangement: species or system E. coli. As to the method: Enzyme assays were conducted in triplicate at room temperature with 25 nM of PabA and PabB, 50 nM of PabC, 50 mM Tris-HCl (pH 7.5), 20 μM PLP, 1 mM L-glutamine, 40 μM chorismate and the indicated concentrations of MAC-173979. The inhibition assays were initiated by addition of a mixture of the three enzymes and quenched with an equal volume of freshly prepared 8M urea. The reaction progress curves were monitored every 10 minutes for 60 minutes and determined by a stopped HPLC-assay that allowed for the quantification of the conversion of chorismate to PABA. The two compounds were separated on a C18 reverse phase column (Nova-Pak C18, 4 μm, 3.9×150 mm, Waters) and eluted isocratically with 5% acetic acid in double distilled H2O. The analytes were visualized by UV absorbance at 275 nm and identified by comparing their retention times and UV absorption spectra to authentic standards. The progress curves were plotted to the rate equation of slow-binding inhibition: […]
using Sigma Plot 12.0 (SPSS, Inc., Chicago, Ill.), where v0 and vs are the initial and final steady-state reaction velocities, respectively, t is the time and kobs is the apparent first order rate constant for the interconversion between the initial and steady-state rates.
In order to directly test the biochemical activity of MAC-0173979 on PABA synthesis, an HPLC-based one-pot enzyme assay using recombinant PabA, PabB and PabC was set up and the formation of PABA was monitored by measuring its absorbance at 275 nm.
MAC173979 and an analog lacking the Michael acceptor (0-1000 μM) were each incubated with the PABA enzymes for 30 minutes prior to substrate addition. Reactions were quenched after 30 minutes with 8 M urea and analyzed by HPLC.

Data set [4] relates to E. coli MG1655. In words: Minimum inhibitory concentration (MIC) determination. The settings on record: for MIC: Escherichia coli; for effect of intermediates of biotin biosynthesis on inhibitory activity (in words): KAPA, DAPA, DTB, biotin in media; for Fold suppression: MIC with supplement / MIC without.
Description: The MIC values were determined in liquid minimal media and minimal media supplemented with amino acids, vitamins and nucleobases.
A single colony of E. coli MG1655 was grown overnight in 5 ml of M9 minimal media. The saturated culture was diluted 1/50 in fresh minimal media and allowed to grow until the OD600 reached ˜0.4. […] After mixing of the bacterial culture with the compounds, the OD600 of the plates was read using Envision to account for background absorbance. The plates were then incubated in a 37° C. stationary incubator for 16 hours before measuring their OD600. After subtracting any background absorbance contributed by colored or precipitated compounds, the MIC was defined as the lowest concentration of antibiotic that inhibits visible growth.
Another data set has as its system Mycobacteria smegmatis. Nature of the data set: MIC against Mycobacteria smegmatis in absence and presence of biotin. The class given is cell-based.
The target in another data set is recombinant E. coli BioA (Escherichia coli, UniProt P12995). Nature of the data set: BioA inhibition through a feeding assay of a bioA auxotroph. The class given is biochemical. As to conditions: for inhibition at 1 µM / inhibition at 10 µM: relative to DMSO control. As to the method: To determine if the step catalyzed by BioA was the target of this inhibitor, the inhibitory activity of MAC-0013772 against recombinant E. coli BioA was assayed through a feeding assay of a bioA auxotroph.

The next data set concerns the target BioA (Escherichia coli, UniProt P12995). Nature of the data set: UV-visible spectra of BioA titrated with inhibitor. It counts as binding, E. coli. As to the method:
To further determine if the inhibition of BioA by MAC13772 is mediated through the interaction of the hydrazine moiety in the compound with PLP in the active site of the enzyme, the UV-visible spectra of BioA was assessed when titrated with the inhibitor.

The test system of the next data set is Staphylococcus aureus. Nature of the data set: Activity against other organisms. It counts as cell-based. As to the method:
(§1) The activity of MAC13772 was tested against a number of organisms in addition to Escherichia coli using methods similar to those described in Example 2.

Data set [5] relates to Mycobacterium tuberculosis. In words: Activity against other organisms. The class given is cell-based. As to the method: as §1
A further data set deals with Acinetobacter baumannii. Nature of the data set: Activity against other organisms. The class given is cell-based. The method, then: as §1
A further data set deals with Klebsiella pneumonia. Nature of the data set: Activity against other organisms. It counts as cell-based. The method, then: as §1
The subject of a further data set is Bacillus subtilis. Nature of the data set: Activity against other organisms. It counts as cell-based. The method, then:
as §1

The subject of the next data set is Salmonella typhimurium. In words: Activity against other organisms. The class given is cell-based. The method, then: as §1
Where [6] appears, read: absence of biotin, read-out: MIC −bio.
Where [7] appears, read: presence of 2 nM of biotin, read-out: MIC +bio.
The mark [8] stands for this setting: MG1655, 16 h, read-out: MIC +bio, presence of 2 nM of biotin.
[9] abbreviates: MG1655, read-out: MIC −bio, absence of biotin.

T1 sequence (P00903 whole entry): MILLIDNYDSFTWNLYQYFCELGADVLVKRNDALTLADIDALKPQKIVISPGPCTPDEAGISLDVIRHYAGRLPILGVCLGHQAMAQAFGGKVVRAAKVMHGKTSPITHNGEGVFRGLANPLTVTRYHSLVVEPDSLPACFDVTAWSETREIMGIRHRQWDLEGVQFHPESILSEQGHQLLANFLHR
T1 sequence (P05041 whole entry): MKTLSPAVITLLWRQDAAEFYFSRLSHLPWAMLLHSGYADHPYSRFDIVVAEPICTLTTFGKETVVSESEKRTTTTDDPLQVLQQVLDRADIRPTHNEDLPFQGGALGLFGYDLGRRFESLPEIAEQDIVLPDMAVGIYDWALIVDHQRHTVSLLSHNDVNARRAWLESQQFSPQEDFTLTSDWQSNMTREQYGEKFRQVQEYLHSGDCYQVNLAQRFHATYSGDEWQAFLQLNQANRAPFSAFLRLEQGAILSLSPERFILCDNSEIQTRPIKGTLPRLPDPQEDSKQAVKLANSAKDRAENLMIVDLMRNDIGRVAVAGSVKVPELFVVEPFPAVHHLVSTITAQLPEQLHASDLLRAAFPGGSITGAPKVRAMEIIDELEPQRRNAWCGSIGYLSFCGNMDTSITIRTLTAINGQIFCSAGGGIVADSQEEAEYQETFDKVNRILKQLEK
T1 sequence (P28305 whole entry): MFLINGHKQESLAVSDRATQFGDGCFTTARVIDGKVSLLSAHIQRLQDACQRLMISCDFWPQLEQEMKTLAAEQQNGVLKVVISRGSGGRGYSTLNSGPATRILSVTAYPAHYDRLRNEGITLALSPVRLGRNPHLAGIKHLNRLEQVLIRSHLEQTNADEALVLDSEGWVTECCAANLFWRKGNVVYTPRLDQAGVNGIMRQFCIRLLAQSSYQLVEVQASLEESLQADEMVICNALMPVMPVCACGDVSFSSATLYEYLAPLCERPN
Sequence of recombinant E. coli BioA (P12995 whole entry): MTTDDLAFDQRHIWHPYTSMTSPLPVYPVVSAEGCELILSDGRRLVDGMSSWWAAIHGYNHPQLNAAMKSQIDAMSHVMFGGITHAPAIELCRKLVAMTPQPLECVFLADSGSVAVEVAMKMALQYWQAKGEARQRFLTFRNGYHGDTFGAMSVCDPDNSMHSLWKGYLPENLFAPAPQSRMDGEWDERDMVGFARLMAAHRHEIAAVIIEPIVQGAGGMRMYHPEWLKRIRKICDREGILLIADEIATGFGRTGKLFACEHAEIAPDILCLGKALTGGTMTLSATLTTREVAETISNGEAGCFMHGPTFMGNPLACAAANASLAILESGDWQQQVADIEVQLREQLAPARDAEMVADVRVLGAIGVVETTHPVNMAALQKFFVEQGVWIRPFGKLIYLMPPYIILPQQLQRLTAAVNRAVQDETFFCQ
Sequence of BioA (P12995 whole entry): as above

Regarding `O=C(CCN1CCCCC1)c1ccc2c(c1)OCCCO2` [MAC-0162065, 1-(3,4-dihydro-2H-benzo[b][1,4]dioxepin-7-yl)-3-(piperidin-1-yl)propan-1-one], the “suppression of growth inhibitory activity by glycine” value with E. coli MG1655 [1] (4× MIC in M9 minimal media) is “strongly suppressed”.

With `CCn1cc(C(=O)O)c(=O)c2cc(F)c(N3CCNCC3)cc21` [norfloxacin, reference compound], the “metabolic suppression profile: metabolites that suppress growth inhibitory activity” value in the data set with E. coli MG1655 [1] (4× MIC in M9 minimal media) is “not altered in the presence of supplements”.

Turning to `COc1ccc(C(=O)CCN(C)C)cc1` [MAC-0168425, 3-(dimethylamino)-1-(4-methoxyphenyl)propan-1-one], the “fold shift in MIC” value in [2] (wild-type strain, 40-640 μg/ml L-threonine) is on record as 4-8 fold; in data set [2] (ΔltaEΔtdh double deletion strain, 320-640 μg/ml L-threonine) it was 2 fold. Moreover, in data set [2] (ΔltaEΔtdhΔkbl triple deletion mutant), the “suppression of activity by L-threonine” value is listed as “completely lost”. For the same compound, in the data set on E. coli MG1655 [1] (4× MIC in M9 minimal media, L-serine), the “suppression of growth inhibitory activity by L-serine” value is given as “not suppressed”. Further, the “suppression of growth inhibitory activity by L-threonine” value in the data set with E. coli MG1655 [1] (4× MIC in M9 minimal media, L-threonine) was “partially suppressed”. Also, the “suppression of growth inhibitory activity by glycine” value in the data set with E. coli MG1655 [1] (4× MIC in M9 minimal media) is on record as “strongly suppressed”.

For `COc1cc(Cc2cnc(N)nc2N)cc(OC)c1OC` [Trimethoprim, reference compound], the “metabolic suppression profile: metabolites that suppress growth inhibitory activity” value in the data set on E. coli MG1655 [1] (4× MIC in M9 minimal media) was “only be suppressed by providing a mixture of all supplements or at least a mixture of amino acids and nucleobases”.

As to `N[C@@H]1CONC1=O` [D-cycloserine, reference compound], in the data set with E. coli MG1655 [1] (4× MIC in M9 minimal media), the “metabolic suppression profile: metabolites that suppress growth inhibitory activity” value is on record as “suppressed by the addition of either D/L-alanine or glycine” and the “suppression of growth inhibitory activity by glycine” value is recorded as “strongly suppressed”.

With `O=C(CC(Cl)Cl)c1cccc([N+](=O)[O-])c1` [analog lacking the Michael acceptor, 3,3-dichloro-1-(3-nitrophenyl)propan-1-one], the half-maximal inhibitory concentration (IC50) in data set [3] was found to be 60 ± 7 µM.

`O=C(C=C(Cl)Cl)c1cccc([N+](=O)[O-])c1` [MAC-0173979, 3,3-dichloro-1-(3-nitrophenyl)prop-2-en-1-one]: in the data set on E. coli MG1655 [1] (4× MIC in M9 minimal media), the “suppression of growth inhibitory activity by p-aminobenzoic acid (PABA)” value was “suppressed; also recorded: fully reversed” and the “suppression of growth inhibitory activity by methionine” value was “to a certain extent; also recorded: fully reversed”. Further, the “fold suppression of MIC on addition of PABA” value in the data set on E. coli MG1655 [4] (PABA added to the growth media) is on record as 16 fold. In addition, in data set [3], the IC50 was 30 ± 2 µM and the Ki is 7.3 ± 1.3 µM. Further, the “mechanism of inhibition of PABA synthesis” value in [3] (progress curves, kobs plot) is “irreversible time-dependent inhibitor”.

Turning to `CN(C)CCC(=O)c1ccc2c(c1)OCCO2` [MAC-0161738, 1-(2,3-dihydrobenzo[b][1,4]dioxin-6-yl)-3-(dimethylamino)propan-1-one], in the data set with E. coli MG1655 [1] (4× MIC in M9 minimal media), the “suppression of growth inhibitory activity by glycine” value is reported as “strongly suppressed”.

In the case of `COc1ccccc1SCC(=O)NN` [Compound 1i, 2-(2-methoxyphenylthio)acetohydrazide], the MIC with Mycobacteria smegmatis (setting [6]) is 16 µg/mL; in the data set with Mycobacteria smegmatis (setting [7]), above 256 µg/mL; with E. coli MG1655 [4] (setting [8]), above 256 µg/mL; with E. coli MG1655 [4] (setting [9]), 128 µg/mL (≈ 603 µM). In addition, on recombinant E. coli BioA, the inhibition at 1 µM was determined as 65%. In addition, the inhibition at 10 µM at recombinant E. coli BioA was found to be 100%.

`NNC(=O)CSc1ccccc1` [Compound 1c, 2-(phenylthio)acetohydrazide]: the “antibacterial potency against M. smegmatis compared with MAC-0013772 (in words)” value in the data set on Mycobacteria smegmatis is reported as “potencies similar to that of MAC-0013772”. In addition, the MIC in the data set with Mycobacteria smegmatis (setting [6]) is 4 µg/mL; with Mycobacteria smegmatis (setting [7]) it was above 256 µg/mL; in the data set with E. coli MG1655 [4] (setting [8]), above 256 µg/mL; with E. coli MG1655 [4] (setting [9]), 64 µg/mL (≈ 351 µM). Moreover, the inhibition at 1 µM on recombinant E. coli BioA is 49%. Moreover, the inhibition at 10 µM on recombinant E. coli BioA is 100%.

For `Cc1cc(NS(=O)(=O)c2ccc(N)cc2)no1` [sulfamethoxazole, reference compound], in the data set on E. coli MG1655 [1] (4× MIC in M9 minimal media), the “suppression of growth inhibitory activity by p-aminobenzoic acid (PABA)” value was “fully reversed” and the “suppression of growth inhibitory activity by methionine” value is listed as “to a certain extent”.

Regarding `NNC(=O)Cc1ccccc1[N+](=O)[O-]` [Compound 2j], the MIC in the data set with Mycobacteria smegmatis (setting [6]) is 256 µg/mL; in the data set with Mycobacteria smegmatis (setting [7]), above 256 µg/mL; with E. coli MG1655 [4] (setting [8]), above 256 µg/mL; with E. coli MG1655 [4] (setting [9]), above 256 µg/mL. Further, at recombinant E. coli BioA, the inhibition at 1 µM was 0%. Also, on recombinant E. coli BioA, the inhibition at 10 µM is 29%.

`NNC(=O)CSc1ccccc1[N+](=O)[O-]` [MAC13772, 2-(2-nitrophenylthio) acetohydrazide]: the minimum inhibitory concentration (MIC) in the data set on Mycobacteria smegmatis (setting [6]) was 4 µg/mL; in the data set on Mycobacteria smegmatis (setting [7]), above 256 µg/mL; in the data set on E. coli MG1655 [4] (setting [9]), 8 µg/mL (≈ 35.2 µM); in the data set on E. coli MG1655 [4] (MG1655, supplement: AA + VIT + NUC), above 256 µg/mL; in the data set with E. coli MG1655 [4] (MG1655, supplement: BIOTIN), above 256 µg/mL; in the data set with E. coli MG1655 [4] (MG1655, supplement: DAPA), above 256 µg/mL. Further, the MIC with E. coli MG1655 [4] (MG1655, supplement: DTB) was above 256 µg/mL; with E. coli MG1655 [4] (MG1655, supplement: KAPA) it was 8 µg/mL (≈ 35.2 µM). In addition, on BioA ([inhibitor]/[BioA]), the “stoichiometry of protein-ligand interaction (molar ratio plot)” value is “stoichiometric”. In addition, the “λmax of PLP-bound BioA after interaction with inhibitor” value on BioA (shift from 420 nm (internal aldimine) to PLP-inhibitor adduct) is listed as 393 nm. The IC50 at recombinant E. coli BioA was around 0.25 µM. In addition, the “suppression of growth inhibitory activity by biotin” value with E. coli MG1655 [1] (biotin in the growth media) was “uniquely suppressed by biotin”. Further, the “effect of intermediates of biotin biosynthesis on inhibitory activity (in words)” value is “KAPA had no effect” in the data set on E. coli MG1655 [4] (listed as MAC-0013372); “fully reversed by DAPA, DTB and biotin” with E. coli MG1655 [4] (listed as MAC-0013772). The Fold suppression in the data set on E. coli MG1655 [4] (supplement: AA + VIT + NUC) came out at 32; in the data set with E. coli MG1655 [4] (supplement: BIOTIN) it was 32; with E. coli MG1655 [4] (supplement: DAPA) it was 32; in the data set with E. coli MG1655 [4] (supplement: DTB), 32; in the data set on E. coli MG1655 [4] (supplement: KAPA), 1. Also, the antibacterial activity result (with Staphylococcus aureus; in [5]; in the data set on Acinetobacter baumannii; in the data set on Klebsiella pneumonia; in the data set with Bacillus subtilis; with Salmonella typhimurium) was “active” in each case.

Turning to `O=C(O)CNCP(=O)(O)O` [glyphosate, reference compound], in the data set on E. coli MG1655 [1] (4× MIC in M9 minimal media), the “metabolic suppression profile: metabolites that suppress growth inhibitory activity” value is reported as “could only be achieved by providing a mixture of amino acids”. Moreover, the “suppression of growth inhibitory activity by pools containing the aromatic amino acids” value with E. coli MG1655 [1] (expanded ChemArray) is on record as “fully reversed”.
